Assay: UV-metric pKa measurement with methanol cosolvent
Type: physicochemical
Details: Yasuda-Shedlovsky extrapolation to 0% methanol from psKa in ISA methanol:water mixtures, 25.0 ± 0.5 °C, ~150 mM KCl, mean ± SEM of three replicates

pKa1 | Structure (SMILES)
5.03 ± 0.01 | FC(F)(F)c1cccc(Nc2ncnc3ccccc23)c1 [SM02]
5.37 ± 0.01 | COc1cccc(Nc2ncnc3ccccc23)c1.Cl [SM09]
